Measured values from PMC9459403, “New inhibitors of cathepsin V impair tumor cell proliferation and elastin degradation and increase immune cell cytotoxicity” (Computational and Structural Biotechnology Journal, 2022).
Entries after “also recorded” stand apart in the source; their conditions may differ.

Tests used:
[1] = test system: cystatin F in U-937 cells; test: Western blot of cystatin F dimer-to-monomer ratio; type: cell-based, human; settings: U-937 cell lysates, 6 h treatment, 10 and 20 μM, vs control
Protocol: Cells were treated with E-64d or compound 7 (both at 10 µM or 20 µM) for 6 h. After treatment, whole-cell lysates were prepared in RIPA buffer supplemented with cOmplete™ Protease Inhibitor Cocktail (Roche, Basel, Switzerland) and centrifuged at 16 000 × g for 20 min at 4 °C. Total protein concentration was determined using the DC assay (Biorad, Hercules, CA, USA). Proteins were separated by non-reducing SDS-PAGE and transferred to a nitrocellulose membrane using the TransBlot Turbo System (Biorad). After blocking, the membranes were incubated with primary antibodies overnight at 4 °C and with secondary antibodies for 1 h at room temperature. Bands were visualized using Clarity Max Western ECL substrate (Biorad), and protein loading was checked using Stain Free technology (Biorad). Images were acquired using the ChemiDoc ML Imaging System (Biorad), and quantification analysis was performed using Image Lab software (Biorad).
The following primary antibodies were used: rabbit anti-cystatin F (1:375, HPA040442, Sigma), goat anti-cathepsin V (1:200, AF 1080, R&D, USA), and mouse anti-GAPDH (1:3000, 10494-I-AP, Proteintech, USA). […]

[2] = biological target: T1, human recombinant cathepsin L (Homo sapiens, UniProt P07711); test: Determination of Ki values and mode of inhibition; type: biochemical; settings: mean ± SD (n = 2)
T1 construct: made in house; host or cells: Escherichia coli
T1 sequence (P07711 114-333): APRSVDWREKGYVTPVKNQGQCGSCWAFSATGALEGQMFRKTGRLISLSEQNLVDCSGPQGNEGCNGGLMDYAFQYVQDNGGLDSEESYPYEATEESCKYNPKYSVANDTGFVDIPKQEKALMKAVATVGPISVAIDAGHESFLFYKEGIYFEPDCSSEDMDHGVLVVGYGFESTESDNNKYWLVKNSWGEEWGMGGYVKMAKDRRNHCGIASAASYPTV
Protocol: (§1) Human recombinant cathepsin V was expressed in Pichia Pastoris, and human recombinant cathepsin L was expressed in Escherichia coli, as reported, [51]. To determine the activities of cathepsins V and L, 100 mM acetate buffer (pH 5.5), containing 0.1 % PEG 8000 (Sigma-Aldrich, St. Louis, MO, USA), 5 mM cysteine, and 1.5 mM EDTA was used. Prior to the assay, the enzyme was activated in the assay buffer for 5 min at 37 °C.
(§2) Inhibition constants were calculated from reaction velocities measured at three substrate concentrations (0.5, 1, and 4 μM) in the presence of inhibitors at seven concentrations (0, 20, 40, 60, 80, 100, and 200 µM). The reaction was initiated by adding 90 μL of enzyme at final concentrations of 2.5 ng/mL and 0.02 nM for cathepsins V and L, respectively, to the wells of a black microtiter plate containing 5 μL of substrate and 5 μL of inhibitor. To evaluate cathepsin V and L activity, the substrate Z-Phe-Arg-AMC was used. The formation of the fluorescent degradation products was monitored as described above. All assay mixtures contained 5 % (v/v) DMSO. All measurements were performed in duplicates and repeated at least twice. The SigmaPlot® 12, Enzyme Kinetics Module™ 1.3 was used to calculate Ki values.

[3] = biological target: T2, Cathepsin V (Homo sapiens, UniProt O60911); test: Determination of Ki values and mode of inhibition; type: biochemical
T2 construct: made in house; host or cells: Pichia pastoris
T2 sequence (O60911 114-334): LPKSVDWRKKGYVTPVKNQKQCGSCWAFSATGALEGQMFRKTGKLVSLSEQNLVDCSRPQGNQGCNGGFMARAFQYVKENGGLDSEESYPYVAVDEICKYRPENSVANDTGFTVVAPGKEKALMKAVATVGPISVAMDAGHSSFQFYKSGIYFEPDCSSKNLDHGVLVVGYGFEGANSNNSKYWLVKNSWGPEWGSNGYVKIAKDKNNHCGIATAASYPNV
Protocol: as §1, §2

[4] = biological target: T2, Cathepsin V; test: Determination of binding reversibility (dilution method); type: biochemical; settings: inhibitor 100 μM, cathepsin V 500 ng/ml
Protocol: Binding reversibility was determined according to the dilution method, which measures the recovery of enzymatic activity after rapid dilution of the enzyme-inhibitor complex. Cathepsin V (500 ng/ml) was incubated in the assay buffer with the inhibitor (100 μM). Half of the reaction mixture was immediately diluted 100-fold with the assay buffer and added to the wells of a black microplate containing 5 μL of substrate (at a final concentration of 2 μM), and the activity was measured. The other half of the reaction mixture was incubated for 2 h before it was diluted 100-fold, and then the activity was measured. The assay was performed in triplicates and repeated at least two times.

[5] = test system: K-562 cells; test: Cell viability assay (MTS); type: cell-based, human; settings: 24 h
Protocol: The effect of compound 7 on the viability of NK-92, TALL-104, and K-562 cells was evaluated using the MTS [3-(4,5-dimethylthiazol-2-yl)-5-(3-carboxymetoxyphenyl)-2-(4-sulfophenyl)–2H-tetrazolium] colorimetric assay (CellTiter 96 Aqueous One Solution Cell Proliferation Assay, Promega, Madison, WI, USA). NK-92, TALL-104, and K-562 cells were seeded at 2.5 × 10^4, 1 × 10^5, and 1 × 10^4 cells/well, respectively, into a 96-well microplate and treated with inhibitors (2.5, 5, or 10 µM) or DMSO (0.1 %) for 24 h. After incubation, 10 µL of the reagent MTS was added to the wells, and the absorbance of formazan was measured at 492 nm on a Tecan Infinite M1000 (Mannedorf, Switzerland). Cell viability (%) was expressed as the ratio between absorbance in the presence of the compounds and in the presence of DMSO. All assays were performed in quadruplicate and repeated at least twice.

[6] = test system: TALL-104 effector cells on target K-562 cells; test: Calcein AM release assay (cytotoxicity); type: cell-based, human; settings: effector cells treated 10 µM, 6 h
Protocol: (§3) Effector cells (NK-92 or TALL-104; 1 × 10^6/ml) were treated with E-64d (10 µM) or compound 7 (10 µM) for 6 h. NK-92 cells were pre-treated with 1000 IU IL2/mL overnight prior to the addition of inhibitors. Effector cells were added to a 96-well U-bottom plate to achieve a selected effector-to-target ratio (E:T). Target K-562 cells were labelled with 15 µM Calcein-AM (Sigma) in serum-free RPMI 1640 medium for 30 min at 37 °C. Cells were then washed twice and resuspended in complete RPMI 1640 medium. Target cells (n = 5000) were added to the effectors. The plate was centrifuged at 200 × g for 1 min and incubated at 37 °C and 5 % CO2 for 4 h. After incubation, the plate was centrifuged at 700 × g for 5 min. The supernatant (50 µL) was transferred to a new microtiter plate to measure the fluorescence of the released Calcein-AM with a Tecan M1000 microtiter plate reader using 496 nm excitation and 516 nm emission filters. The percentage of cytotoxicity was calculated as follows: 100(test release-spontaneous release)/(total release-spontaneous release). Spontaneous release was measured in wells containing only target cells. For total release, 2 % Triton X-100 was added to the wells to achieve lysis of target cells. Lytic units (LU) were calculated using the inverse of the number of effector cells needed to lyse 30 % of the target cells multiplied by 100.

[7] = test system: NK-92 effector cells on target K-562 cells; test: Calcein AM release assay (cytotoxicity); type: cell-based, human; settings: effector cells treated 10 µM, 6 h
Protocol: as §3

## O=C(NCc1cccc2ccccc12)NCC1CCN(C(=O)Oc2ccccc2)CC1 [Compound 7, Phenyl 4-((3-(naphthalen-1-ylmethyl)ureido)methyl)piperidine-1-carboxylate]
[1]
  cystatin F dimer-to-monomer ratio: even further increased
[2]
  Cathepsin L Ki (µM): no inhibition and did not inhibit cathepsin L and n.i^f and n.i
  Cathepsin L Ki′ (µM): n.i^f
[3]
  mode of inhibition of cathepsin V: competitive
[3]; mean ± SD (n = 2)
  Ki: 88.7 ± 10.2 µM
[4]
  binding reversibility: cathepsin V activity after 2 h incubation and 100-fold rapid dilution: reversible; also recorded: restored
[5]; 10 μM
  viability of K-562 cells: slightly decreased
[5]; up to 5 μM
  viability of K-562 cells: not decreased
[6]
  cytotoxicity of TALL-104 cells (target cell killing): significantly increased
[7]
  cytotoxicity of NK-92 cells (target cell killing): significantly increased
